The test system of assay [1] is A549 cells (Kras G12S mutation). Description: Cell proliferation inhibition experiment, 3D cell model, CellTiter-Glo (A549). Particulars: A549, 2% FBS F-12K, 384-well sphere plate, cultured 5 days with compound. The assay is classed as cell-based, human. The protocol:
(§1) NCI-H358 was a human non-small cell lung cancer cell line with Kras G12C mutation, cultured in 10% FBS RPMI-1640 medium; A549 was a human lung adenocarcinoma cell line with Kras G12S mutation, cultured in 10% FBS F-12K medium. The cells in the logarithmic growth phase was taken, digested with trypsin EDTA, collected and counted, and H358 was adjusted to 1.8E4 cells/ml using 2% FBS RPMI-1640 medium, and A549 was adjusted to 8.9E3 cells/ml using 2% FBS F-12K medium; 800 (45 μl) H358 or 400 (45 μl) A549 cells were seeded in a 384-well sphere plate respectively, cultured overnight to establish a 3D cell model. DMSO was used to prepare 1000× compound 3.16-fold gradient concentration stock solution, and 2% FBS medium was used to dilute 100-fold to 10× compound stock solution. On the second day after cell seeding, 5 μl 10× compound stock solution was added to each cell culture well, the final concentration was 1×, and DMSO content was 0.1%. DMSO was used as the experimental control (control) and 2% FBS medium as the blank control (blank). After the compound and cells were added and cultured for 5 days, 25 μl CellTiter-Glo working solution was added to each well, mixed at 400 rpm and incubated for 30 minutes. After standing 30 minutes at room temperature, 40 μl of the mixture was transfered to a 384-well plate with a non-transparent white bottom, the luminescence chemiluminescence value was read, and the cells proliferation inhibition rate IR (%)=(RLU control-RLU compound)/(RLU control-RLU blank)×100% was calculated, Prism 6 four-parameter method was used to fit the compound's gradient dilution concentration and the corresponding cell proliferation inhibition rate, and the IC50 value was calculated.
Background: ATP-based viability assays read luminescence as a measure of living cells.

In assay [2] the test system is Kras G12C mutant NCI-H358 cells. Description: Cell proliferation inhibition experiment, 3D cell model, CellTiter-Glo (H358). The class given is cell-based, human. As to conditions: NCI-H358, 2% FBS RPMI-1640, 384-well sphere plate, cultured 5 days with compound. The protocol:
as §1

Drawing on patent US20220363681A1, “OXO SIX-MEMBERED CYCLOPYRIMIDINE COMPOUND, PREPARATION METHOD AND MEDICAL USE THEREOF” (GenFleet Therapeutics (Shanghai) Inc., priority 2019, published 2022), this text covers IC50 for 18 compounds.

The structures appear in SMILES notation.

As a reminder, the IC50 is the concentration that gives 50% inhibition. As to `C=CC(=O)N1CCN(c2nc(OC[C@@H]3CCCN3C)nc3c(OC4CC4)c(-c4c(C)ccc5[nH]ncc45)c(Cl)cc23)[C@@H](C)C1` [Compound Z28, 1-((3S)-4-(6-chloro-8-cyclopropoxy-7-(5-methyl-1H-indazol-4-yl)-2-(((S)-1-methylpyrrolidin-2-yl)methoxy)quinazolin-4-yl)-3-methylpiperazin-1-yl)prop-2-en-1-one], the concentration for half-maximal inhibition (IC50) was over 1000 nM in assay [1] (Homo sapiens, A549, 120 h) and 11 nM in assay [2] (Homo sapiens, NCI-H358, 120 h).
`C=CC(=O)N1CCN(c2nc(OC[C@@H]3CCCN3C)nc3c(OC4CC4)c(-c4c(C)ccc5[nH]ncc45)c(Cl)cc23)C[C@@H]1C` [Compound Z29, 1-((2S)-4-(6-chloro-8-cyclopropoxy-7-(5-methyl-1H-indazol-4-yl)-2-((((S)-1-methylpyrrolidin-2-yl))methoxy)quinazolin-4-yl)-2-methylpiperazin-1-yl)prop-2-en-1-one]: the IC50 is over 10000 nM in assay [1] (Homo sapiens, A549, 120 h) and 51 nM in assay [2] (Homo sapiens, NCI-H358, 120 h).
The like results for `C=CC(=O)N1CCN(c2nc(OC[C@@H]3CCCN3C)nc3c(OC4CC4)c(-c4c(C)ccc5[nH]ncc45)c(Cl)cc23)C[C@H]1C` [Compound Z30, 1-((2R)-4-(6-chloro-8-cyclopropoxy-7-(5-methyl-1H-indazol-4-yl)-2-((((S)-1-methylpyrrolidin-2-yl))methoxy)quinazolin-4-yl)-2-methylpiperazin-1-yl)prop-2-en-1-one] were, in that order, over 5000 nM and 26 nM.
In the same order, the values of `C=CC(=O)N1CCN(c2nc(OC[C@@H]3CCCN3C)nc3c(OC4CC4)c(-c4c(C)ccc5[nH]ncc45)c(Cl)cc23)CC1CC#N` (stereo partly drawn) [Compound Z31] are over 10000 nM and 34 nM.
In the same order, the values of `C=CC(=O)N1CCN(c2nc(OC3CCN(C)C3)nc3c(OC4CC4)c(-c4c(C)ccc5[nH]ncc45)c(Cl)cc23)CC1` (stereo not drawn) [Compound Z32] are over 1000 nM and 20 nM.
On to `C=CC(=O)N1CCN(c2nc(N3CC(N(C)C)C3)nc3c(OC4CC4)c(-c4c(C)ccc5[nH]ncc45)c(Cl)cc23)CC1` [Compound Z33, 1-(4-(6-chloro-8-cyclopropoxy-2-(3-(dimethylamino)azetidine-1-yl)-7-(5-methyl-1H-indazol-4-yl)quinazolin-4-yl)piperazin-1-yl)prop-2-en-1-one], for which the half-maximal inhibitory concentration (IC50) in assay [1] (Homo sapiens, A549, 120 h) was over 5000 nM; in assay [2] (Homo sapiens, NCI-H358, 120 h) it was 39 nM.
In the same order, the values of `C=CC(=O)N1CCN(c2nc(N3CCC(N(C)C)CC3)nc3c(OC4CC4)c(-c4c(C)ccc5[nH]ncc45)c(Cl)cc23)CC1` [Compound Z34, 1-(4-(6-chloro-8-cyclopropoxy-2-(4-(dimethylamino)piperidin-1-yl)-7-(5-methyl-1H-indazol-4-yl)quinazolin-4-yl)piperazin-1-yl)prop-2-en-1-one] are over 30000 nM and 38 nM.
The like results for `C=CC(=O)N1CCN(c2nc(N3CCC(N(C)C)C3)nc3c(OC4CC4)c(-c4c(C)ccc5[nH]ncc45)c(Cl)cc23)CC1` (stereo not drawn) [Compound Z35, 1-(4-(6-chloro-8-cyclopropoxy-2-(3-(dimethylamino)pyrrolidin-1-yl)-7-(5-methyl-1H-indazol-4-yl)quinazolin-4-yl)piperazin-1-yl)prop-2-en-1-one] were, in that order, over 5000 nM and 43 nM.
Regarding `C=CC(=O)N1CCN(c2nc(OCCN(C)C)nc3c(OC4CC4)c(-c4c(C)ccc5[nH]ncc45)c(Cl)cc23)CC1` [Compound Z36], the IC50 is over 30000 nM in assay [1] (Homo sapiens, A549, 120 h) and 16 nM in assay [2] (Homo sapiens, NCI-H358, 120 h).
Turning to `C=CC(=O)N1CCN(c2nc(N3CCN(C)CC3)nc3c(OC4CC4)c(-c4c(C)ccc5[nH]ncc45)c(Cl)cc23)CC1` [Compound Z37], the 50% inhibitory concentration (IC50) was over 5000 nM in assay [1] (Homo sapiens, A549, 120 h) and 51 nM in assay [2] (Homo sapiens, NCI-H358, 120 h).
For the compound `C=CC(=O)N1CCN(c2nc(OC[C@@H]3C[C@@H](F)CN3C)nc3c(OC4CC4)c(-c4c(C)ccc5[nH]ncc45)c(Cl)cc23)CC1` [Compound Z38, 1-(4-(6-chloro-8-cyclopropoxy-2-((((2S, 4R)-4-fluoro-1-methylpyrrolidin-2-yl)methoxy)-7]-(5-methyl-1H-indazol-4-yl)quinazolin-4-yl)piperazin-1-yl)prop-2-en-1-one], the half-maximal inhibitory concentration (IC50) was over 30000 nM in assay [1] (Homo sapiens, A549, 120 h) and 19 nM in assay [2] (Homo sapiens, NCI-H358, 120 h).
In the case of `C=CC(=O)N1CCN(c2nc(O[C@@H]3CCN(C)C3)nc3c(OC4CC4)c(-c4c(C)ccc5[nH]ncc45)c(Cl)cc23)CC1` [Compound Z39], the 50% inhibitory concentration (IC50) in assay [1] (Homo sapiens, A549, 120 h) was over 5000 nM; in assay [2] (Homo sapiens, NCI-H358, 120 h), 21 nM.
For `C=CC(=O)N1CCN(c2nc(O[C@H]3CCN(C)C3)nc3c(OC4CC4)c(-c4c(C)ccc5[nH]ncc45)c(Cl)cc23)CC1` [Compound Z40], the IC50 was over 1000 nM in assay [1] and 25 nM in assay [2].
In the case of `C=CC(=O)N1[C@@H]2CC[C@H]1CN(c1nc(OC[C@@H]3CCCN3C)nc3c(OC4CC4)c(-c4c(C)ccc5[nH]ncc45)c(Cl)cc13)C2` [Compound Z42, 1-((1R, 5S)-3-(6-chloro-8-cyclopropoxy-7-(5-methyl-1H-indazol-4-yl)-2-(((S)-1-methylpyrrolidin-2-yl)methoxy)quinazolin-4-yl)-3,8-diazabicyclo[3.2.1]octane-8-yl)prop-2-en-1-one], the 50% inhibitory concentration (IC50) was over 30000 nM in assay [1] (Homo sapiens, A549, 120 h) and 331 nM in assay [2] (Homo sapiens, NCI-H358, 120 h).
In the same order, the values of `C=CC(=O)N1CCN(c2nc(OC[C@@H]3C[C@H](F)CN3C)nc3c(OC4CC4)c(-c4c(C)ccc5[nH]ncc45)c(Cl)cc23)CC1` [Compound Z45, 1-(4-(6-chloro-8-cyclopropoxy-2-((((2S, 4S)-4-fluoro-1-methylpyrrolidin-2-yl)methoxy)-7]-(5-methyl-1H-indazol-4-yl)quinazolin-4-yl)piperazin-1-yl)prop-2-en-1-one] are over 30000 nM and 18 nM.
Turning to `C=CC(=O)N1CCN(c2nc(OC[C@@H]3CCCN3C)nc3c(OC4CC4)c(-c4c(C)ccc5[nH]ncc45)c(Cl)cc23)C[C@@H]1CC#N` [Compound Z46], the IC50 in assay [1] is over 30000 nM; in assay [2], 2 nM.
On to `C=CC(=O)N1CCN(c2nc(OC[C@@H]3CCCN3C)nc3c(OC4CC4)c(-c4c(C)ccc5[nH]nc(F)c45)c(Cl)cc23)CC1` [Compound Z47, 1-(4-(6-chloro-8-cyclopropoxy-7-(3-fluoro-5-methyl-1H-indazol-4-yl)-2-((((S)-1-methylpyrrolidin-2-yl))methoxy)quinazolin-4-yl)piperazin-1-yl)prop-2-en-1-one], for which the concentration for half-maximal inhibition (IC50) in assay [1] (Homo sapiens, A549, 120 h) was over 5000 nM; in assay [2] (Homo sapiens, NCI-H358, 120 h), 38 nM.
Turning to `C=CC(=O)N1CCN(c2nc(OC[C@@H]3CCCN3C)nc3c(OC4CC4)c(-c4c(C)ccc5[nH]ncc45)c(OC)cc23)CC1` [Compound Z49, 1-(4-(8-cyclopropoxy-6-methoxy-7-(5-methyl-1H-indazol-4-yl)-2-(((S)-1-methylpyrrolidin-2-yl)methoxy)quinazolin-4-yl)piperazin-1-yl)prop-2-en-1-one], the IC50 in assay [1] (Homo sapiens, A549, 120 h) is over 30000 nM; in assay [2] (Homo sapiens, NCI-H358, 120 h), 83 nM.
